Laboratory results reported in US10711002B2, “Purine compounds and method for the treatment of cancer” (THE ROYAL INSTITUTION FOR THE ADVANCEMENT OF …, priority 2016, dated 2020).

Legend:
Test in all cases: High-throughput kinase assay
Type in all cases: biochemical
FGFR1 = FGFR1 (Homo sapiens, UniProt P11362); conditions: read-out: Percent inhibition of kinase activity in vitro, FGFR1; for inhibition at 0.1 µM: 100 nM; for inhibition at 0.5 µM: 500 nM
Protocol: (§1) Screening of Compounds 1-4 against several kinases identified two prominent targets of these compounds as the Aurora A kinase and calcium dependent protein kinase C isoforms α, βI, βII and […] (Tables 1 to 3). IC50s for these two targets were obtained by plotting inhibition levels at 500 nM, 100 nM, 50 nM and 10 nM (FIG. 3). These kinases are directly involved in pathways controlling cell differentiation programs, metastasis signaling, as well as EMT and CSC programming and their overexpression was reported to predict decreased metastasis-free survival.

PRKCB2 (PKC beta II) = PRKCB2 (PKC beta II) (Homo sapiens, UniProt P05771); conditions: 50 nM; read-out: Percent inhibition of kinase activity in vitro, PRKCB2 (PKC beta II)
Protocol: as §1

PRKCA (PKC alpha) = PRKCA (PKC alpha) (Homo sapiens, UniProt P17252); conditions: for inhibition at 0.05 µM: 50 nM; for inhibition at 0.1 µM: 100 nM; for inhibition at 0.5 µM: 500 nM
Protocol: as §1

MET (cMet) = MET (cMet) (Homo sapiens, UniProt P08581); conditions: read-out: Percent inhibition of kinase activity in vitro, MET (cMet); for inhibition at 0.1 µM: 100 nM; for inhibition at 0.5 µM: 500 nM
Protocol: as §1

AURKB (Aurora B) = AURKB (Aurora B) (Homo sapiens, UniProt Q96GD4); conditions: read-out: Percent inhibition of kinase activity in vitro, AURKB (Aurora B); for inhibition at 0.1 µM: 100 nM; for inhibition at 0.5 µM: 500 nM
Chain of AURKB (Aurora B) (Q96GD4 whole entry): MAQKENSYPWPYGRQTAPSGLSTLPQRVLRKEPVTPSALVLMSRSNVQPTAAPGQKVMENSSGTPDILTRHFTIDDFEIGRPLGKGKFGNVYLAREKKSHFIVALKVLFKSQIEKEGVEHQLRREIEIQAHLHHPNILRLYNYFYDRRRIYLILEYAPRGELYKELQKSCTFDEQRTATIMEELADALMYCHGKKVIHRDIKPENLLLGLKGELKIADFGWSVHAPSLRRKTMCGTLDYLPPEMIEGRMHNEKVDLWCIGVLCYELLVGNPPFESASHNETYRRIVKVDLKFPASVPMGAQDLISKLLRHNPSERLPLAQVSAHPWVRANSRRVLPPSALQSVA
Protocol: as §1

JAK2 = JAK2 (Homo sapiens, UniProt O60674); conditions: read-out: Percent inhibition of kinase activity in vitro, JAK2; for inhibition at 0.1 µM: 100 nM; for inhibition at 0.5 µM: 500 nM
Protocol: as §1

IGF1R = IGF1R (Homo sapiens, UniProt P08069); conditions: read-out: Percent inhibition of kinase activity in vitro, IGF1R; for inhibition at 0.1 µM: 100 nM; for inhibition at 0.5 µM: 500 nM
Protocol: as §1

PDGFRA (PDGFR alpha) = PDGFRA (PDGFR alpha) (Homo sapiens, UniProt P16234); conditions: read-out: Percent inhibition of kinase activity in vitro, PDGFRA (PDGFR alpha); for inhibition at 0.1 µM: 100 nM; for inhibition at 0.5 µM: 500 nM
Protocol: as §1

TGFBR1 (ALK5) = target: T1, TGFBR1 (ALK5) (Homo sapiens, UniProt P36897); conditions: read-out: Percent inhibition of kinase activity in vitro, TGFBR1 (ALK5); for inhibition at 0.1 µM: 100 nM; for inhibition at 0.5 µM: 500 nM
T1 sequence (P36897 34-503): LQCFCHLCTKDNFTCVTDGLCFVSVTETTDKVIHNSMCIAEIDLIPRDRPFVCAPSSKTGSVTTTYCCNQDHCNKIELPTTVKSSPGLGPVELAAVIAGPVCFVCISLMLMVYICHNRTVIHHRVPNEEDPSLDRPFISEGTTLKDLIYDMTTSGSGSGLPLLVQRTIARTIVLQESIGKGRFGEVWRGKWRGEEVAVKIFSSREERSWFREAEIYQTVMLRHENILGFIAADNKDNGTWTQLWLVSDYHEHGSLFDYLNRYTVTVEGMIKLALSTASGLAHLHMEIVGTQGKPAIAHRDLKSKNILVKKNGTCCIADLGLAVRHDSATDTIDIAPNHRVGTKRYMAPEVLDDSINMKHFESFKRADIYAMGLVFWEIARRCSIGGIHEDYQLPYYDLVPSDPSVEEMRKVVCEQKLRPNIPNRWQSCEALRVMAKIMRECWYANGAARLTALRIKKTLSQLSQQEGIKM
Protocol: as §1

PRKCH (PKC eta) = PRKCH (PKC eta) (Homo sapiens, UniProt P24723); conditions: 50 nM; read-out: Percent inhibition of kinase activity in vitro, PRKCH (PKC eta)
Chain of PRKCH (PKC eta) (P24723 whole entry): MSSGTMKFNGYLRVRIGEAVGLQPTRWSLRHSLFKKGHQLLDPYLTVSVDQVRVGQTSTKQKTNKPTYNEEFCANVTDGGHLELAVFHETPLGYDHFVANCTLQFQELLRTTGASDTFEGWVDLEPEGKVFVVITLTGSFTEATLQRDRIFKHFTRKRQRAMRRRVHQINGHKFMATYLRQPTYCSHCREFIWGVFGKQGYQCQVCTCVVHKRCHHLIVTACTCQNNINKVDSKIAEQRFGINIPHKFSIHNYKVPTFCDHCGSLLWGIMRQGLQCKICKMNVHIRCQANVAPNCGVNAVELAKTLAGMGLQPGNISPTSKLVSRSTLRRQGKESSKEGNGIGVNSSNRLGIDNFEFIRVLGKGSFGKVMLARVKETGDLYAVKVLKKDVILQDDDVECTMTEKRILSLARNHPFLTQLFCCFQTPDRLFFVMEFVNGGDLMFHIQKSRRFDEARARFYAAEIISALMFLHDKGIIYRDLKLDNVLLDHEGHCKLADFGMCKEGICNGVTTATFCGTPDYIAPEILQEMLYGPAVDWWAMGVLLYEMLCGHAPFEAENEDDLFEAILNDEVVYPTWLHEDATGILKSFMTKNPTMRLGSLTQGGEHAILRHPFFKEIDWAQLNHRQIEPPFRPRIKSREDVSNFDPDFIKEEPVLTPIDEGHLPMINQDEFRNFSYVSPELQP
Protocol: as §1

PTK2 (FAK) = PTK2 (FAK) (Homo sapiens, UniProt Q05397); conditions: read-out: Percent inhibition of kinase activity in vitro, PTK2 (FAK); for inhibition at 0.1 µM: 100 nM; for inhibition at 0.5 µM: 500 nM
Chain of PTK2 (FAK) (Q05397 whole entry): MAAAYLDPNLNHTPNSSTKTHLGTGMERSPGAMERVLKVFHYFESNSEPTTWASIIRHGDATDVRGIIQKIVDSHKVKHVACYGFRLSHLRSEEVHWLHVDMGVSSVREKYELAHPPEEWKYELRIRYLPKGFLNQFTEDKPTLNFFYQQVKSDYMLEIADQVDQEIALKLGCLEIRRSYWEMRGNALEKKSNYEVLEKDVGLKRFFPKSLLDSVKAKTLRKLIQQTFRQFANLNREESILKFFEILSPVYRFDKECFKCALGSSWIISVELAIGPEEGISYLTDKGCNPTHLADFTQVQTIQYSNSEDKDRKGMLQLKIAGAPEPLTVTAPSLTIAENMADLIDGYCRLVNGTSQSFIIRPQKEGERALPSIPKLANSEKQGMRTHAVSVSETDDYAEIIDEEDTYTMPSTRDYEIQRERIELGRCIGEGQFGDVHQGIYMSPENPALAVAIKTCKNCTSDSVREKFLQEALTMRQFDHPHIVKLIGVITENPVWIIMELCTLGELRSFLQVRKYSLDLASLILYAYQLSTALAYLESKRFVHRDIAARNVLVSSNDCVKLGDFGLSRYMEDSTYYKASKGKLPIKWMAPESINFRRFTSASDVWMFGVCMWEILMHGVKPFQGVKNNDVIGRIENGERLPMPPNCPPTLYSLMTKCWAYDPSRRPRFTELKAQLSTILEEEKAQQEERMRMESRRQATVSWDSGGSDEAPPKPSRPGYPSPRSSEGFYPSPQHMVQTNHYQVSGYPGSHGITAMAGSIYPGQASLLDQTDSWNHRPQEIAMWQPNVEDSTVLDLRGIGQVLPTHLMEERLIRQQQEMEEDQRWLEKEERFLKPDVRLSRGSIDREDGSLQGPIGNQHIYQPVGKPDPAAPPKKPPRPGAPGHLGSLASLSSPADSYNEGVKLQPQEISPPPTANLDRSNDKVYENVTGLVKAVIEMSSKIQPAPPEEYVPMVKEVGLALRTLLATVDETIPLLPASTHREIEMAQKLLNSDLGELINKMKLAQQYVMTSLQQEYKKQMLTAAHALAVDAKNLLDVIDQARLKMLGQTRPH
Protocol: as §1

BRAF-ZLYTE-100 = BRAF-ZLYTE-100 (Homo sapiens, UniProt P15056); conditions: 100 nM; read-out: Percent inhibition of kinase activity in vitro, BRAF-ZLYTE-100
Chain of BRAF-ZLYTE-100 (P15056 whole entry): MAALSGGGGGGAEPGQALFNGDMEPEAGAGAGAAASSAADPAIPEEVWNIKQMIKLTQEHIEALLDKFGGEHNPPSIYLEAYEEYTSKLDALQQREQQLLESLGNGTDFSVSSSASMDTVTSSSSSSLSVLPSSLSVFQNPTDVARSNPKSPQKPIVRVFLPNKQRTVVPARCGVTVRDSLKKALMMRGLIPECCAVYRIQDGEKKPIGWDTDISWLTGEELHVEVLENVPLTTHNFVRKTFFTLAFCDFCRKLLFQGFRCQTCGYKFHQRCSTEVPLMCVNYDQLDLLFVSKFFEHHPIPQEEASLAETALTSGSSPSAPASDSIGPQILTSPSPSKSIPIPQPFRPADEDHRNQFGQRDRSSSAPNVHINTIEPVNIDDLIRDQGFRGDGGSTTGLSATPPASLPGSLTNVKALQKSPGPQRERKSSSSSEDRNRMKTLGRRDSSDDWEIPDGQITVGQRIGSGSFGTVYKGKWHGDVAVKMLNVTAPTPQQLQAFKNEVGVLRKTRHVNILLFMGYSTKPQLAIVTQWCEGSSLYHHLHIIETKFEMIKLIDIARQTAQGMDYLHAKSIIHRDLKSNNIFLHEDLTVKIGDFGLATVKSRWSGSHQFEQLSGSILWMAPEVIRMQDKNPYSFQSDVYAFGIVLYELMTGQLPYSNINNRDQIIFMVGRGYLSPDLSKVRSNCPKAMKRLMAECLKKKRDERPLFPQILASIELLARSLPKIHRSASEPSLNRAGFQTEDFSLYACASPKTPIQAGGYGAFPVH
Protocol: as §1

FRAP1 (mTOR) = FRAP1 (mTOR) (Homo sapiens, UniProt P42345); conditions: read-out: Percent inhibition of kinase activity in vitro, FRAP1 (mTOR); for inhibition at 0.1 µM: 100 nM; for inhibition at 0.5 µM: 500 nM
Protocol: as §1

AURKA (Aurora A) = target: T2, AURKA (Aurora A) (Homo sapiens, UniProt O14965); conditions: for inhibition at 0.1 µM: 100 nM; for inhibition at 0.5 µM: 500 nM
T2 sequence (O14965 1-403): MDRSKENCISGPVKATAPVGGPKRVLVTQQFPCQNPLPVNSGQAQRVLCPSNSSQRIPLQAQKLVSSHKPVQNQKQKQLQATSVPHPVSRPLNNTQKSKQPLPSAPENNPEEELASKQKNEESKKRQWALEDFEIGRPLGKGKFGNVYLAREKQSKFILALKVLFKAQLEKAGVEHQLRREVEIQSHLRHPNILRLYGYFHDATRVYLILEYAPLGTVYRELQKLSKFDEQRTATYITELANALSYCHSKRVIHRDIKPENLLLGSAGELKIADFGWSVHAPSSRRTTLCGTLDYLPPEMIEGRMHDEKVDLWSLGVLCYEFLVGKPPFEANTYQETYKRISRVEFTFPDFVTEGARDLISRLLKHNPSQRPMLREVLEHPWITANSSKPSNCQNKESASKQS
Protocol: as §1

PRKCD (PKC delta) = PRKCD (PKC delta) (Homo sapiens, UniProt Q05655); conditions: 50 nM; read-out: Percent inhibition of kinase activity in vitro, PRKCD (PKC delta)
Chain of PRKCD (PKC delta) (Q05655 whole entry): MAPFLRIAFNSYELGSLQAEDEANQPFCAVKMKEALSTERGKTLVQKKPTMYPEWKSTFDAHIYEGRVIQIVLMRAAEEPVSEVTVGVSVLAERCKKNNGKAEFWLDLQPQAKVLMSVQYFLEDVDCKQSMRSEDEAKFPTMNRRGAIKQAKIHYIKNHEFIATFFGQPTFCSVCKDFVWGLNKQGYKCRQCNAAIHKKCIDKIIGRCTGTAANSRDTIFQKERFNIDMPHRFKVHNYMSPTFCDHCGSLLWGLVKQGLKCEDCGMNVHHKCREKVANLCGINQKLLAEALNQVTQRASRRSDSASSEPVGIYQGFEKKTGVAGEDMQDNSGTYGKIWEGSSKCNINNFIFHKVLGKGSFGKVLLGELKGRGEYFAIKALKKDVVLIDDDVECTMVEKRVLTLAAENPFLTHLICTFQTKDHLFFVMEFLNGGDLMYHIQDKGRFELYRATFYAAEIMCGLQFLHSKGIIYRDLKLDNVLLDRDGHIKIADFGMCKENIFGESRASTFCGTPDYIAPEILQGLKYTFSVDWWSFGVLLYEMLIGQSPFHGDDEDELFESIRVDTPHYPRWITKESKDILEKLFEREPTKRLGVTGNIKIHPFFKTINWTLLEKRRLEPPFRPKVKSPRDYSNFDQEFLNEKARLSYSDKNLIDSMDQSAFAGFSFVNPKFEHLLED
Protocol: as §1

SYK = SYK (Homo sapiens, UniProt P43405); conditions: read-out: Percent inhibition of kinase activity in vitro, SYK; for inhibition at 0.1 µM: 100 nM; for inhibition at 0.5 µM: 500 nM
Protocol: as §1

[1] = read-out: Percent inhibition of kinase activity in vitro, PRKCA (PKC alpha)
[2] = read-out: Percent inhibition of kinase activity in vitro, AURKA (Aurora A)
[3] = from inhibition levels at 500, 100, 50 and 10 nM

Chain of FGFR1 (P11362 22-822): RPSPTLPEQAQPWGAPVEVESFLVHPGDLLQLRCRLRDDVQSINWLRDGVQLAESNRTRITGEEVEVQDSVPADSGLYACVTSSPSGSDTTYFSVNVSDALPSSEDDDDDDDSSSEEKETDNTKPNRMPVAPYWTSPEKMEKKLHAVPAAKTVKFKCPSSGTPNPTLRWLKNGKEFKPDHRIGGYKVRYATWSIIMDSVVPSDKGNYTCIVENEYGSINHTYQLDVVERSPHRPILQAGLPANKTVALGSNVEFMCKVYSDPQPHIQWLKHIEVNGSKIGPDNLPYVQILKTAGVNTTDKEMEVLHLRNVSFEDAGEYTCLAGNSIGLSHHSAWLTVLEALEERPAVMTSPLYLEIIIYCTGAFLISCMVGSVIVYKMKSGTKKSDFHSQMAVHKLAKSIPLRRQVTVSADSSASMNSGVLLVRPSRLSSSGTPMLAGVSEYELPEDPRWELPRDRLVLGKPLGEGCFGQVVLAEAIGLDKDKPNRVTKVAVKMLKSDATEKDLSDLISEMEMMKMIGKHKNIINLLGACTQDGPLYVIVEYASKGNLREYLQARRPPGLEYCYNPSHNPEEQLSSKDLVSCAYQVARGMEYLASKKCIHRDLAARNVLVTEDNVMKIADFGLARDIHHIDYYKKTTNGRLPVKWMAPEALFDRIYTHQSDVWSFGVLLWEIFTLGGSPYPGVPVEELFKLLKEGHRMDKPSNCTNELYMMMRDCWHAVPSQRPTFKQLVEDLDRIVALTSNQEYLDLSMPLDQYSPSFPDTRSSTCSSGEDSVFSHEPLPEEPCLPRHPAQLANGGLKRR

SMILES	inhibition at 0.1 µM (FGFR1)	inhibition at 0.5 µM (FGFR1)	inhibition at 0.05 µM (PRKCB2 (PKC beta II))	inhibition at 0.05 µM (PRKCA (PKC alpha); [1])	inhibition at 0.1 µM (PRKCA (PKC alpha); [1])	inhibition at 0.5 µM (PRKCA (PKC alpha); [1])	inhibition at 0.1 µM (MET (cMet))	inhibition at 0.5 µM (MET (cMet))	inhibition at 0.1 µM (AURKB (Aurora B))	inhibition at 0.5 µM (AURKB (Aurora B))	inhibition at 0.1 µM (JAK2)	inhibition at 0.5 µM (JAK2)	inhibition at 0.1 µM (IGF1R)	inhibition at 0.5 µM (IGF1R)	inhibition at 0.1 µM (PDGFRA (PDGFR alpha))	inhibition at 0.1 µM (TGFBR1 (ALK5))	inhibition at 0.1 µM (PTK2 (FAK))	inhibition at 0.1 µM (BRAF-ZLYTE-100)	inhibition at 0.1 µM (AURKA (Aurora A); [2])	inhibition at 0.1 µM (SYK)	other results
O=c1c2ccccc2[se]n1-c1nc(NC2CCCCC2)c2nc[nH]c2n1 [Compound 1]	0%	2%	62%	68%	83%	98%	2%	10%	12%	25%	10%	10%	0%	12%	0%	0%	5%	1%	89%	6%	inhibition at 0.5 µM (PDGFRA (PDGFR alpha)): 3%; inhibition at 0.5 µM (TGFBR1 (ALK5)): 0%; inhibition at 0.05 µM (PRKCH (PKC eta)): 0%; inhibition at 0.5 µM (PTK2 (FAK)): 7%; inhibition at 0.1 µM (FRAP1 (mTOR)): 1%; inhibition at 0.5 µM (FRAP1 (mTOR)): 2%; inhibition at 0.5 µM (AURKA (Aurora A); [2]): 94%; inhibition at 0.05 µM (PRKCD (PKC delta)): 0%; inhibition at 0.5 µM (SYK): 8%
O=c1c2ccccc2[se]n1-c1nc(NC2CC[Se]C2)c2nc[nH]c2n1 (centres unmarked) [Compound 2]	–	0%	–	–	84%	96%	1%	5%	19%	13%	15%	13%	–	11%	–	0%	5%	0%	93%	2%	inhibition at 0.5 µM (PDGFRA (PDGFR alpha)): 4%; inhibition at 0.5 µM (TGFBR1 (ALK5)): 0%; inhibition at 0.5 µM (PTK2 (FAK)): 7%; inhibition at 0.5 µM (FRAP1 (mTOR)): 5%; inhibition at 0.5 µM (AURKA (Aurora A); [2]): 97%; inhibition at 0.5 µM (SYK): 9%
C[C@@H]1C(Nc2nc(-n3[se]c4ccccc4c3=O)nc3[nH]cnc23)C[C@H]2C[C@@H]1C2(C)C (some centres unmarked) [Compound 3]	–	13%	–	–	45%	86%	0%	17%	24%	19%	13%	11%	–	13%	–	3%	0%	0%	78%	0%	inhibition at 0.5 µM (PDGFRA (PDGFR alpha)): 5%; inhibition at 0.5 µM (TGFBR1 (ALK5)): 0%; inhibition at 0.5 µM (PTK2 (FAK)): 8%; inhibition at 0.5 µM (FRAP1 (mTOR)): 1%; inhibition at 0.5 µM (AURKA (Aurora A); [2]): 99%; inhibition at 0.5 µM (SYK): 24%
O=c1c2ccccc2[se]n1-c1nc(N[C@H]2CC[Se]C2)c2nc[nH]c2n1 [Compound 4]	0%	–	95%	101%	98%	–	4%	–	14%	–	18%	–	4%	–	1%	0%	1%	0%	95%	6%	inhibition at 0.01 µM (PRKCA (PKC alpha); 10 nM, read-out: Percent inhibition of kinase activity in vitro, PRKCA (PKC alpha)): 22%; IC50 (PRKCA (PKC alpha); [3]): 10.9 nM; inhibition at 0.05 µM (PRKCH (PKC eta)): 6%; inhibition at 0.1 µM (FRAP1 (mTOR)): 8%; inhibition at 0.01 µM (AURKA (Aurora A); 10 nM, read-out: Percent inhibition of kinase activity in vitro, AURKA (Aurora A)): 55%; inhibition at 0.05 µM (AURKA (Aurora A); 50 nM, read-out: Percent inhibition of kinase activity in vitro, AURKA (Aurora A)): 87%; IC50 (AURKA (Aurora A); [3]): 3.8 nM; inhibition at 0.05 µM (PRKCD (PKC delta)): 0%
O=C1c2ccccc2CN1c1nc(NC2CCCCC2)c2nc[nH]c2n1 [SLLN-6C, reference compound]	0%	–	5%	14%	0%	–	0%	–	10%	–	7%	–	0%	–	0%	0%	3%	1%	4%	2%	inhibition at 0.05 µM (PRKCH (PKC eta)): 0%; inhibition at 0.1 µM (FRAP1 (mTOR)): 0%; inhibition at 0.05 µM (PRKCD (PKC delta)): 0%
